The text below walks through data of US4618622A, “Sulfonates of hydroxycoumarins” (priority 1982, dated 1986).

Each structure is given as a SMILES string. pIC50: −log10 of the molar value.

One experiment deals with reserpine-induced hypothermia. Description: Antidepressant action: inhibition of reserpine-induced hypothermia (reserpine test). Format: in vivo, mouse (male, Swiss strain). Conditions: oral administration, 60 minutes before reserpine 2.15 mg/kg s.c.; mouse; temperature 2 hours after; read-out: Antidepressant action (mouse) ED50. As for the experimental part:
The test substances are administered orally, 60 minutes before the reserpine.
One may read the ED50 as the dose that gives a 50% effect, or the effect in half of the subjects. Turning to `Cc1c(C)c2ccc(OS(C)(=O)=O)cc2oc1=O` [Example 2, 7-Hydroxy-3,4-dimethylcoumarin methanesulfonate], the 50% effective dose (ED50) came to 5.9 mg/kg.
Consider `Cc1c(C)c2ccc(OS(=O)(=O)c3ccc4ccccc4c3)cc2oc1=O` [Example 4, 7-Hydroxy-3,4-dimethylcoumarin naphthalene-2'-sulfonate], for which the ED50 came out at 4 mg/kg.
Regarding `Cc1c(C)c2ccc(OS(=O)(=O)c3ccc(Cl)cc3)cc2oc1=O` [Example 9, 7-Hydroxy-3,4-dimethylcoumarin 4'-chlorobenzenesulfonate], the 50% effective dose (ED50) stood at 6.1 mg/kg.
`Cc1c(C)c2ccc(OS(=O)(=O)c3ccc(Br)cc3)cc2oc1=O` [Example 11, 7-Hydroxy-3,4-dimethylcoumarin 4'-bromobenzenesulfonate]: the ED50 is 2.5 mg/kg.
In the case of `Cc1c(C)c2ccc(OS(=O)(=O)c3ccc(F)cc3)cc2oc1=O` [Example 14, 7-Hydroxy-3,4-dimethylcoumarin 4'-fluorobenzenesulfonate], the ED50 was 1.4 mg/kg.
Still for that read-out and setting: then `Cc1c(C)c2ccc(OS(=O)(=O)c3ccc(C#N)cc3)cc2oc1=O` [Example 18, 7-Hydroxy-3,4-dimethylcoumarin 4'-cyanobenzenesulfonate], with 3.6 mg/kg; and `CCCCCS(=O)(=O)Oc1ccc2c(C)c(C)c(=O)oc2c1` [Example 38, 7-Hydroxy-3,4-dimethylcoumarin pentanesulfonate], with 1.4 mg/kg.
Regarding `CCS(=O)(=O)Oc1ccc2c(C)c(C)c(=O)oc2c1` [Example 39, 7-Hydroxy-3,4-dimethylcoumarin ethanesulfonate], the ED50 was found to be 1.7 mg/kg.
For the compound `Cc1cc(=O)oc2cc(OS(=O)(=O)c3ccccc3)ccc12` [Example 41, 7-Hydroxy-4-methylcoumarin benzenesulfonate], the ED50 is 29.7 mg/kg.
With `CNS(=O)(=O)Oc1ccc2c(C)c(C)c(=O)oc2c1` [Example 43, 7-Hydroxy-3,4-dimethylcoumarin N-methylamidosulfonate], the ED50 was found to be 1.9 mg/kg.
`Cc1c(C)c2ccc(OS(=O)(=O)CCCCl)cc2oc1=O` [Example 55, 7-Hydroxy-3,4-dimethylcoumarin 3'-chloropropanesulfonate]: the ED50 worked out at 1.3 mg/kg.
In the case of `Cc1c(C)c2ccc(OS(=O)(=O)CCl)cc2oc1=O` [Example 56, 7-Hydroxy-3,4-dimethylcoumarin chloromethanesulfonate], the ED50 was determined as 3.4 mg/kg.
For `Cc1c(C)c2ccc(OS(=O)(=O)c3cccc([N+](=O)[O-])c3)cc2oc1=O` [Example 57, 7-Hydroxy-3,4-dimethylcoumarin 3'-nitrobenzenesulfonate], the ED50 is 1.5 mg/kg.

The next experiment deals with T1, Monoaminoxidase A (Rattus norvegicus, UniProt P21396).
T1 sequence (P21396 1-526): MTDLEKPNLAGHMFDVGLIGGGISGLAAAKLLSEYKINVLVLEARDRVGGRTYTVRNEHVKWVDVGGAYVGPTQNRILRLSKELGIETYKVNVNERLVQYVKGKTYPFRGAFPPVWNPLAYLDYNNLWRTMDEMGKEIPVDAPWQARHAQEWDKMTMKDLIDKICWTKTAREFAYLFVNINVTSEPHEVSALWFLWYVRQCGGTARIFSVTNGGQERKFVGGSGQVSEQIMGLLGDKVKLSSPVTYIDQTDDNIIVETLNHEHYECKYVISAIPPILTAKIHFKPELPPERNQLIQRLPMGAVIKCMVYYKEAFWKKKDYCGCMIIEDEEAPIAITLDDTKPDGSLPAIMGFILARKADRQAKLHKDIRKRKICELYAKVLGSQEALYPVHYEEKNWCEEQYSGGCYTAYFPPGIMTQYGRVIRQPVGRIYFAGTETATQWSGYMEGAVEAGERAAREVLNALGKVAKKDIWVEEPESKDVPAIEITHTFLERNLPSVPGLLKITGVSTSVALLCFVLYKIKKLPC
Description: biochemical. Conditions: monoaminoxidase A, rat brain homogenate, 14C-tryptamine 0.4 μmol/liter, 37° C., 20 minutes; read-out: Monoaminoxidase inhibition IC50. As for the experimental part: Monoaminoxidase A is determined in dilute rat brain homogenate to which
1. various concentrations of the test substances and
2. ^14 C-tryptamine in a concentration of 0.4 μmol/liter are added. This mixture is incubated at 37° C. for 20 minutes, after which the reaction is terminated by means of aqueous 0.1N HCl, and the products are extracted with toluene scintillator (PPO+POPOP in toluene) and then determined. The blank value is determined in similar mixtures for an incubation time of t=0 minutes.
The mean inhibitory concentration (IC50) is calculated from the inhibitory values determined, in comparison with the control, at the various inhibitor concentrations, by means of a linear regression after logit-log transformation.
As a reminder, the pIC50 is the negative decadic logarithm of the IC50, by convention in mol/L. In the case of `Cc1c(C)c2ccc(OS(=O)(=O)c3cccc4ccccc34)cc2oc1=O` [Example 3, 7-Hydroxy-3,4-dimethylcoumarin naphthalene-1'-sulfonate], the pIC50 was 7.12.
For `Cc1c(C)c2ccc(OS(=O)(=O)c3ccccc3[N+](=O)[O-])cc2oc1=O` [Example 6, 7-Hydroxy-3,4-dimethylcoumarin 2'-nitrobenzenesulfonate], the pIC50 is 6.96.
Still for that read-out and setting: then `Cc1c(C)c2ccc(OS(=O)(=O)c3ccc(OC(F)(F)C(F)F)cc3)cc2oc1=O` [Example 8, 7-Hydroxy-3,4-dimethylcoumarin 4'-(α,α,β,β-tetrafluoroethoxy)-benzenesulfonate], with 6.80; and `Cc1cc(C)c(S(=O)(=O)Oc2ccc3c(C)c(C)c(=O)oc3c2)c(C)c1` [Example 12, 7-Hydroxy-3,4-dimethylcoumarin 2',4',6'-trimethylbenzenesulfonate], with 7.29.
Same read-out and setting: as for `Cc1c(C)c2ccc(OS(=O)(=O)c3cc(Cl)ccc3Cl)cc2oc1=O` [Example 13, 7-Hydroxy-3,4-dimethylcoumarin 2',5'-dichlorobenzenesulfonate], the figure is 7.57.
Regarding `CC(=O)Nc1ccc(S(=O)(=O)Oc2ccc3c(C)c(C)c(=O)oc3c2)cc1` [Example 15, 7-Hydroxy-3,4-dimethylcoumarin 4'-acetylaminobenzenesulfonate], the pIC50 was 6.21.
Turning to `Cc1cc2ccc(OS(=O)(=O)c3ccc(Br)cc3)cc2oc1=O` [Example 19, 7-Hydroxy-3-methylcoumarin 4'-bromobenzenesulfonate], the pIC50 was 8.01.
With `Cc1cc2ccc(OS(=O)(=O)c3ccccc3)cc2oc1=O` [Example 20, 7-Hydroxy-3-methylcoumarin benzenesulfonate], the pIC50 is 7.17.
Turning to `O=c1oc2cc(OS(=O)(=O)c3ccccc3)ccc2c2c1CCCC2` [Example 21, 7-Hydroxy-3,4-tetramethylenecoumarin benzenesulfonate], the pIC50 was 6.26.
In the case of `Cc1c(C)c2ccc(OS(=O)(=O)Cc3ccccc3)cc2oc1=O` [Example 25, 7-Hydroxy-3,4-dimethylcoumarin phenylmethanesulfonate], the pIC50 is 7.11.
Turning to `CCCCCCCCS(=O)(=O)Oc1ccc2c(C)c(C)c(=O)oc2c1` [Example 27, 7-Hydroxy-3,4-dimethylcoumarin octanesulfonate], the pIC50 was 7.47.
The same measure, in the same setting: then `O=c1oc2cc(OS(=O)(=O)c3ccc(Br)cc3)ccc2c2c1CCCC2` [Example 28, 7-Hydroxy-3,4-tetramethylenecoumarin 4'-bromobenzenesulfonate], with 6.54.
Consider `O=c1oc2cc(OS(=O)(=O)c3ccc(Cl)cc3)ccc2c2c1CCCC2` [Example 29, 7-Hydroxy-3,4-tetramethylenecoumarin 4'-chlorobenzenesulfonate], for which the pIC50 was 6.96.
Regarding `CCc1cc(=O)oc2cc(OS(=O)(=O)c3ccc(Cl)cc3)ccc12` [Example 31, 4-Ethyl-7-hydroxycoumarin 4'-chlorobenzenesulfonate], the pIC50 was 7.52.
Take `CCc1cc(=O)oc2cc(OS(=O)(=O)c3ccccc3)ccc12` [Example 32, 4-Ethyl-7-hydroxycoumarin benzenesulfonate]: the pIC50 was 6.92.
Take `CCc1c(C)c2ccc(OS(=O)(=O)c3ccc(Cl)cc3)cc2oc1=O` [Example 34, 3-Ethyl-7-hydroxy-4-methylcoumarin 4'-chlorobenzenesulfonate]: the pIC50 is 7.64.
Still for that read-out and setting: then `CCCc1c(C)c2ccc(OS(=O)(=O)c3ccc(Cl)cc3)cc2oc1=O` [Example 37, 7-Hydroxy-4-methyl-3-propylcoumarin 4'-chlorobenzenesulfonate], with 7.17; and `CC(C)S(=O)(=O)Oc1ccc2ccc(=O)oc2c1` [Example 45, 7-Hydroxycoumarin isopropanesulfonate], with 6.80.
With `COC(=O)Cc1c(C)c2ccc(OS(=O)(=O)c3ccc(Br)cc3)cc2oc1=O` [Example 48, 7-Hydroxy-3-carbomethoxymethyl-4-methylcoumarin 4'-bromobenzenesulfonate], the negative-log IC50 (pIC50) is 7.66.
On to `CCOC(=O)c1cc2ccc(OS(=O)(=O)c3ccc(Cl)cc3)cc2oc1=O` [Example 50, 7-Hydroxy-3-carboethoxycoumarin 4'-chlorobenzenesulfonate], for which the pIC50 was 6.27.
For `CCOC(=O)c1cc2ccc(OS(=O)(=O)c3ccc([N+](=O)[O-])cc3)cc2oc1=O` [Example 51, 7-Hydroxy-3-carboethoxycoumarin 4'-nitrobenzenesulfonate], the negative logarithm of the IC50 (pIC50) is 6.27.
Still for that read-out and setting: as for `Cc1c(Cl)c(=O)oc2cc(OS(=O)(=O)C(C)C)ccc12` [Example 60, 7-Hydroxy-3-chloro-4-methylcoumarin isopropanesulfonate], the figure is 7.85.
